Measured values from article PMC9764201, “Half-calcified calmodulin promotes basal activity and inactivation of the L-type calcium channel CaV1.2” (The Journal of Biological Chemistry, 2022).

How the values were obtained:
CaV1.2 [1] = assay: Cell-attached single-channel recording of CaV1.2 with ectopic CaM in HEK 293T/17 cells; format: cell-based, rat; settings: 110 mM Ba2+, 0 mV from -80 mV; mean±SEM (Table S3)
Description: (§1) HEK 293T/17 cells (ATCC) were maintained as previously described ([15], [53]). For electrophysiology, Lipofectamine 2000 (Invitrogene) or JetPrime (Polyplus Transfection) was used to transiently transfect cells with indicated plasmid DNAs in 35 mm dishes. For biochemistry experiments, transient transfection of HEK 293T/17 cells in […] dishes was achieved using either JetPrime or, as previously described ([15], [53]), the calcium phosphate method. Cells were cotransfected with plasmids encoding the pore-forming α11.2 subunit N-terminally tagged with eCFP ([15], [53]) or mCherry ([54]) plus pGWIH-based plasmids encoding the auxiliary subunits rat β2A ([55]) and rabbit α2δ-1 ([56]) as previously described ([15], [53]). For all transfections, equimolar ratio of 1:1:1 was used for CaV1.2 channel subunits and later further optimized (JetPrime) for CaM (at ratio of 1:1:1:0.5 for α11.2:β2A:α2δ−1:CaM). Rat brain α11.2 (GenBank ID: M67515.1) N-terminally fused to eCFP was utilized as previously described ([15]). The point mutations in plasmids encoding single-residue I1654A, Y1657D (this report), and K1662E exchanges in α11.2 were generated via QuikChange II as previously described ([15], [53]) using N-terminally eCFP ([15], [53]) or mCherry tagged ([54]) rat brain α11.2 plasmid template DNAs. We studied CDI using mCherry-tagged α11.2 subunit coexpressed with the other, untagged CaV1.2 subunits and WT CaM or the calmodulin 34 mutant CaM34 (kindly provided by JP Adelman, ([8])). For some biochemical experiments shown in Fig. S2, YFP-tagged CaM was used ([32]).
(§2) Single-channel recordings were performed as described previously ([15], [31]). In brief, low noise raw data were recorded with an Axopatch 200B amplifier and data were sampled at 10 kHz with a low-pass filter at 2 kHz (3 dB, four pole Bessel) and digitalized with a Digidata 1440 digitizer. Recording electrodes were pulled from borosilicate capillary glass ([…]) with a Flaming/Brown micropipette puller (Model P-97, Sutter Instruments), heat polished, and coated with Sylgard (Sylgard 289) until close to the electrode tip. Electrode resistance in solution was usually 5 to 10 MΩ. To keep the membrane potential close to 0 mV the extracellular bath solution contained (in mM) 120 K-Glutamate, 25 KCl, 2 MgCl2, 1 CaCl2, 10 EGTA, 10 Hepes, and 2 Na2-ATP pH 7.4 (KOH). The intracellular pipette solution contained (in mM) 110 BaCl2 and 10 Hepes, adjusted to pH 7.4 (TEA-OH). Cells were depolarized for 2 s from a holding potential of -80 mV to 0 mV every 7 s. Event lists were created from raw Ba^2+ currents after leak and capacity transients were digitally subtracted by pClamp 10. Unitary current events were then analyzed based on the half-height criterium ([57]) using the single-channel software provided by pClamp 10.
(§3) For statistical analysis, single-channel parameters were corrected by the channel number (k), respectively, the maximum of simultaneously open channels (PMAX). The number of channels in the patch was estimated based on the observed simultaneous openings and is a precise parameter for k < 4, as included in this article and originally described by R. Horn ([58]). On average, 100 to 200 Ba^2+ current traces were recorded for each cell for each experimental condition for an appropriate statistical analysis.
Table S3. Effects of ectopically expressed CaM and CaM34 on CaV1.2 as determined by single channel recordings with 110 mM Ba2+. HEK 293T/17 cells were transiently transfected with eCFP-tagged rat CaV1.2, α2δ1 and β2a alone or together with WT CaM (+CaM) or CaM34 (+CaM34). Parameters were corrected for the number of channels (k) in the patch. Recordings were obtained at a test potential of 0 mV from a holding potential of -80 mV. For all parameters, statistical significance p was determined for CaV1.2 without ectopic CaM expression and for CaV1.2 plus CaM34 agains CaV1.2 plus wt CaM (one-way ANOVA followed by Bonferroni test). […]

CaV1.2 [2] = assay: Cell-attached single-channel recording of CaV1.2 variants in HEK 293T/17 cells; format: cell-based, rat; settings: 110 mM Ba2+, 0 mV from -80 mV; n=8; mean±SEM (Table S2)
Description: as §1, §2, §3
Table S2. Biophysical properties of WT and Y1657D mutant CaV1.2 as determined by single channel recordings with 110 mM Ba2+. HEK 293T/17 cells were transiently transfected with eCFP-tagged rat CaV1.2 (WT versus Y1657D) plus α2δ1 and β2a. Single-channel parameter were corrected for the number of channels (k) in the patch. Availability denotes the number of active over […] traces. Popen (Po) is the open probability within active traces. Ipeak is the current flown through all channels in a patch at the time point of the current maximum and was corrected by the number of channels. Mean ensemble average (MEA) is the mean average current of all traces after being superimposed. […]

With “CaV1.2: WT rat brain α11.2 with α2δ1 and β2A expressed in HEK 293T/17 cells” the Availability (CaV1.2 [1]) was 77±7%, the IPeak (CaV1.2 [1]) was 19.7±4.0 fA and the “MEA (mean ensemble average)” value (CaV1.2 [1]) was 9.6±2.4 fA. For the same substance, the “MOT (mean open time)” value (CaV1.2 [1]) was 1.2 ± 0.2 ms, the Po (CaV1.2 [1]) was 2.3±0.6% and the unitary i (CaV1.2 [1]) was 0.81±0.03 pA. The Availability (CaV1.2 [2]) was 65±12%, the IPeak (CaV1.2 [2]) was 21.2±5.3 fA and the “MEA (mean ensemble average)” value (CaV1.2 [2]) was 8.5±2.4 fA. The “MOT (mean open time)” value (CaV1.2 [2]) was 1.4 ± 0.2 ms, the Po (CaV1.2 [2]) was 2.0±0.5% and the unitary i (CaV1.2 [2]) was 0.7±0.04 pA.
